The values that follow come from patent US9346815B2, “5-chloro-2-difluoromethoxyphenyl pyrazolopyrimidine compounds, compositions and methods of use thereof” (Genentech, Inc., priority 2014, dated 2016).

The target in assay [1] is isolated recombinant JAK1 kinase domain (Homo sapiens (Human), UniProt P23458). Description: JAK1 enzyme assay (Caliper LabChip, peptide phosphorylation). The assay is classed as biochemical. The note with it: isolated recombinant JAK1 kinase domain, 25 μM ATP.
Assay [2] has as its target isolated recombinant JAK2 kinase domain (Homo sapiens (Human), UniProt O60674). The assay can be described thus: JAK2 enzyme assay (Caliper LabChip, peptide phosphorylation). The note with it: 25 μM ATP. The assay is classed as biochemical.
Assay [3] concerns JAK1-dependent STAT6 phosphorylation downstream of IL-13 stimulation in TF-1 human erythroleukemia cells. Description: JAK1 pathway assay in TF-1 cells (IL-13-pSTAT6, MSD). The assay is classed as cell-based. The note with it: Homo sapiens, TF-1, TF-1 cells, read-out: IL13-pSTAT6 EC50_TF-1. Put shortly:
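TF-1 cells starved of GM-CSF overnight, assayed serum-free; BEAS-2B cells in complete growth medium. Lysate pSTAT6 measured by MSD; EC50 derived.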

Sequence of isolated recombinant JAK2 kinase domain (O60674 849-1124): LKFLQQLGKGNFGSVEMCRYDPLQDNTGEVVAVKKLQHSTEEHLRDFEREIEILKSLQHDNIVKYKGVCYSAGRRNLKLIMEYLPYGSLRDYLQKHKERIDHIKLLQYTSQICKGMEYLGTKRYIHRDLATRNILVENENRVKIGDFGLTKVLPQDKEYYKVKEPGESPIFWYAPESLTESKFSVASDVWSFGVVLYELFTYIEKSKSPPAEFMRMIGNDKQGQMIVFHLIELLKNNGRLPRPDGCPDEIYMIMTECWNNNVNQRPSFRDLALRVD
Sequence of isolated recombinant JAK1 kinase domain (P23458 875-1153): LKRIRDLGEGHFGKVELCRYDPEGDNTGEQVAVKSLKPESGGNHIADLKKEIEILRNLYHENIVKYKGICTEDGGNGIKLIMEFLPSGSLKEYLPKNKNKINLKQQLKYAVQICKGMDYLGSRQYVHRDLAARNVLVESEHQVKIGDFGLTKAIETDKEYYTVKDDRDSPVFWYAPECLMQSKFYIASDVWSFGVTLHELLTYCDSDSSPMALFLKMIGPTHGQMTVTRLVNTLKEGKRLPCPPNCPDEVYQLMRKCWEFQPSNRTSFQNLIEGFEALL

`CN1CCN(CCCN2CCC(n3cc(NC(=O)c4c(N)nn5cccnc45)c(-c4cc(Cl)ccc4OC(F)F)n3)CC2)C1=O` [Example 164, 2-amino-N-[3-[5-chloro-2-(difluoromethoxy)phenyl]-1-[1-[3-(3-methyl-2-oxo-imidazolidin-1-yl)propyl]-4-piperidyl]pyrazol-4-yl]pyrazolo[1,5-a]pyrimidine-3-carboxamide]: the Ki – broadly, a measure of affinity in units of concentration, obtained from inhibition or displacement – was found to be 0.44 nM in assay [1] and 0.06 nM in assay [2]. Besides, the EC50 in assay [3] amounted to 5.6 nM.

`NC(=O)CCN1CCC(n2cc(NC(=O)c3c(N)nn4cccnc34)c(-c3cc(Cl)ccc3OC(F)F)n2)CC1` [Example 165, 2-amino-N-[1-[1-(3-amino-3-oxo-propyl)-4-piperidyl]-3-[5-chloro-2-(difluoromethoxy)phenyl]pyrazol-4-yl]pyrazolo[1,5-a]pyrimidine-3-carboxamide]: the Ki in assay [1] is 0.38 nM; in assay [2], 0.15 nM. In addition, the EC50 in assay [3] came out at 6.9 nM.

`Nc1nn2cccnc2c1C(=O)Nc1cn(C2CCN(CCCN3CCN(Cc4ccccc4)C3=O)CC2)nc1-c1cc(Cl)ccc1OC(F)F` [Example 166, 2-amino-N-[1-[1-[3-(3-benzyl-2-oxo-imidazolidin-1-yl)propyl]-4-piperidyl]-3-[5-chloro-2-(difluoromethoxy)phenyl]pyrazol-4-yl]pyrazolo[1,5-a]pyrimidine-3-carboxamide]: the Ki in assay [1] came out at 0.91 nM; in assay [2] it was 0.26 nM. Further, the EC50 in assay [3] was determined as 22.9 nM.

Regarding `Nc1nn2cccnc2c1C(=O)Nc1cn(C2CCN(CCCC(=O)NCc3ccccc3)CC2)nc1-c1cc(Cl)ccc1OC(F)F` [Example 167, 2-amino-N-[1-[1-[4-(benzylamino)-4-oxo-butyl]-4-piperidyl]-3-[5-chloro-2-(difluoromethoxy)phenyl]pyrazol-4-yl]pyrazolo[1,5-a]pyrimidine-3-carboxamide], the Ki in assay [1] was found to be 0.53 nM; in assay [2] it was 0.18 nM. Also, the EC50 in assay [3] is 19.7 nM.

Turning to `CNC(=O)CCCN1CCC(n2cc(NC(=O)c3cnn4cccnc34)c(-c3cc(Cl)ccc3OC(F)F)n2)CC1` [Example 168, N-[3-[5-chloro-2-(difluoromethoxy)phenyl]-1-[1-[4-(methylamino)-4-oxo-butyl]-4-piperidyl]pyrazol-4-yl]pyrazolo[1,5-a]pyrimidine-3-carboxamide], the results for the Ki in assay [1] and in assay [2] were 1.47 nM and 0.29 nM, respectively. Besides, in assay [3], the EC50 came to 7.7 nM.

For the molecule `O=C(Nc1cn(C2CCN(CCCC(=O)N3CCOCC3)CC2)nc1-c1cc(Cl)ccc1OC(F)F)c1cnn2cccnc12` [Example 169, N-[3-[5-chloro-2-(difluoromethoxy)phenyl]-1-[1-(4-morpholino-4-oxo-butyl)-4-piperidyl]pyrazol-4-yl]pyrazolo[1,5-a]pyrimidine-3-carboxamide], the figures for the Ki in assay [1] and in assay [2] were 1.16 nM and 0.22 nM, respectively. Also, the EC50 in assay [3] turned out to be 6.8 nM.

On to `NC(=O)CCCN1CCC(n2cc(NC(=O)c3cnn4cccnc34)c(-c3cc(Cl)ccc3OC(F)F)n2)CC1` [Example 170, N-[1-[1-(4-amino-4-oxo-butyl)-4-piperidyl]-3-[5-chloro-2-(difluoromethoxy)phenyl]pyrazol-4-yl]pyrazolo[1,5-a]pyrimidine-3-carboxamide], for which the Ki in assay [1] worked out at 1.67 nM; in assay [2], 0.25 nM. Moreover, the EC50 in assay [3] turned out to be 11.4 nM.

As for `CN1CCCC(n2cc(NC(=O)c3c(N)nn4cccnc34)c(-c3cc(Cl)ccc3OC(F)F)n2)CC1` (stereo not drawn) [Example 172, 2-amino-N-[3-[5-chloro-2-(difluoromethoxy)phenyl]-1-(1-methylazepan-4-yl)pyrazol-4-yl]pyrazolo[1,5-a]pyrimidine-3-carboxamide], the Ki in assay [1] turned out to be 0.88 nM; in assay [2], 0.15 nM. The EC50 in assay [3] amounted to 15.9 nM.

Turning to `CC(=O)N1CCC(CN2CCC(n3cc(NC(=O)c4c(N)nn5cccnc45)c(-c4cc(Cl)ccc4OC(F)F)n3)CC2)CC1` [Example 173, N-[1-[1-[(1-acetyl-4-piperidyl)methyl]-4-piperidyl]-3-[5-chloro-2-(difluoromethoxy)phenyl]pyrazol-4-yl]-2-amino-pyrazolo[1,5-a]pyrimidine-3-carboxamide], the Ki was determined as 0.58 nM in assay [1] and 0.13 nM in assay [2]. Further, in assay [3], the EC50 stood at 4.8 nM.

Consider `CC(C)CN1CCC(n2cc(NC(=O)c3c(N)nn4cccnc34)c(-c3cc(Cl)ccc3OC(F)F)n2)CC1` [Example 174, 2-amino-N-[3-[5-chloro-2-(difluoromethoxy)phenyl]-1-(1-isobutyl-4-piperidyl)pyrazol-4-yl]pyrazolo[1,5-a]pyrimidine-3-carboxamide], for which the results for the Ki in assay [1] and in assay [2] were 0.67 nM and 0.09 nM, respectively. The EC50 in assay [3] amounted to 12.3 nM.

As to `CCOC(=O)CCCN1CCC(n2cc(NC(=O)c3c(N)nn4cccnc34)c(-c3cc(Cl)ccc3OC(F)F)n2)CC1` [Example 175, ethyl 4-[4-[4-[(2-aminopyrazolo[1,5-a]pyrimidine-3-carbonyl)amino]-3-[5-chloro-2-(difluoromethoxy)phenyl]pyrazol-1-yl]-1-piperidyl]butanoate], the Ki in assay [1] was determined as 0.78 nM; in assay [2], 0.13 nM. In addition, the EC50 in assay [3] came to 13.4 nM.

As to `Nc1nn2cccnc2c1C(=O)Nc1cn(C2CCN(CCCO)CC2)nc1-c1cc(Cl)ccc1OC(F)F` [Example 176, 2-amino-N-[3-[5-chloro-2-(difluoromethoxy)phenyl]-1-[1-(3-hydroxypropyl)-4-piperidyl]pyrazol-4-yl]pyrazolo[1,5-a]pyrimidine-3-carboxamide], the values for the Ki in assay [1] and in assay [2] were 0.68 nM and 0.12 nM, respectively. Moreover, the EC50 in assay [3] amounted to 12.7 nM.

In the case of `CS(=O)(=O)CCCN1CCC(n2cc(NC(=O)c3c(N)nn4cccnc34)c(-c3cc(Cl)ccc3OC(F)F)n2)CC1` [Example 177, 2-amino-N-[3-[5-chloro-2-(difluoromethoxy)phenyl]-1-[1-(3-methylsulfonylpropyl)-4-piperidyl]pyrazol-4-yl]pyrazolo[1,5-a]pyrimidine-3-carboxamide], the Ki in assay [1] is 0.45 nM; in assay [2], 0.09 nM. Moreover, the EC50 in assay [3] was found to be 15 nM.

With `Nc1nn2cccnc2c1C(=O)Nc1cn(C2CCN(Cc3ccccc3)CC2)nc1-c1cc(Cl)ccc1OC(F)F` [Example 178, 2-amino-N-[1-(1-benzyl-4-piperidyl)-3-[5-chloro-2-(difluoromethoxy)phenyl]pyrazol-4-yl]pyrazolo[1,5-a]pyrimidine-3-carboxamide], the Ki in assay [1] came out at 1.23 nM; in assay [2] it was 0.43 nM. Moreover, the EC50 in assay [3] came out at 83.9 nM.

Consider `Nc1nn2cccnc2c1C(=O)Nc1cn(C2CCN(CCCCc3ccccc3)CC2)nc1-c1cc(Cl)ccc1OC(F)F` [Example 179, 2-amino-N-[3-[5-chloro-2-(difluoromethoxy)phenyl]-1-[1-(4-phenylbutyl)-4-piperidyl]pyrazol-4-yl]pyrazolo[1,5-a]pyrimidine-3-carboxamide], for which the inhibition constant Ki in assay [1] is 3.04 nM; in assay [2], 0.9 nM. Further, the EC50 in assay [3] is 130 nM.

Consider `Nc1nn2cccnc2c1C(=O)Nc1cn(C2CCN(CCOCc3ccccc3)CC2)nc1-c1cc(Cl)ccc1OC(F)F` [Example 180, 2-amino-N-[1-[1-(2-benzyloxyethyl)-4-piperidyl]-3-[5-chloro-2-(difluoromethoxy)phenyl]pyrazol-4-yl]pyrazolo[1,5-a]pyrimidine-3-carboxamide], for which the Ki in assay [1] stood at 1.25 nM; in assay [2] it was 0.35 nM. Further, in assay [3], the EC50 came out at 38.4 nM.

For `Nc1nn2cccnc2c1C(=O)Nc1cn(C2CCN(CCCCOCCc3ccccc3)CC2)nc1-c1cc(Cl)ccc1OC(F)F` [Example 181, 2-amino-N-[3-[5-chloro-2-(difluoromethoxy)phenyl]-1-[1-[4-(2-phenylethoxy)butyl]-4-piperidyl]pyrazol-4-yl]pyrazolo[1,5-a]pyrimidine-3-carboxamide], the Ki in assay [1] is 1.99 nM; in assay [2], 0.48 nM. Besides, in assay [3], the EC50 is 95.6 nM.

As for `CN1CC[C@H](n2cc(NC(=O)c3c(N)nn4cccnc34)c(-c3cc(Cl)ccc3OC(F)F)n2)C1` [Example 182, 2-amino-N-[3-[5-chloro-2-(difluoromethoxy)phenyl]-1-[(3S)-1-methylpyrrolidin-3-yl]pyrazol-4-yl]pyrazolo[1,5-a]pyrimidine-3-carboxamide], the inhibition constant Ki in assay [1] was 0.49 nM; in assay [2], 0.2 nM. The EC50 in assay [3] amounted to 8.9 nM.

As to `CN1CC[C@@H](n2cc(NC(=O)c3c(N)nn4cccnc34)c(-c3cc(Cl)ccc3OC(F)F)n2)C1` [Example 183, 2-amino-N-[3-[5-chloro-2-(difluoromethoxy)phenyl]-1-[(3R)-1-methylpyrrolidin-3-yl]pyrazol-4-yl]pyrazolo[1,5-a]pyrimidine-3-carboxamide], the Ki in assay [1] came out at 0.49 nM; in assay [2], 0.23 nM. The EC50 in assay [3] was found to be 6.8 nM.

In the case of `Nc1nn2cccnc2c1C(=O)Nc1cn([C@H]2CCNC2)nc1-c1cc(Cl)ccc1OC(F)F` [Example 186, 2-amino-N-[3-[5-chloro-2-(difluoromethoxy)phenyl]-1-[(3S)-pyrrolidin-3-yl]pyrazol-4-yl]pyrazolo[1,5-a]pyrimidine-3-carboxamide], the Ki stood at 0.71 nM in assay [1] and 0.2 nM in assay [2]. Besides, the EC50 in assay [3] was determined as 12.3 nM.

`CN(C)CCC1CCN(c2nc(-c3cc(Cl)ccc3OC(F)F)c(NC(=O)c3cnn4cccnc34)s2)CC1` [Example 191, N-[4-[5-chloro-2-(difluoromethoxy)phenyl]-2-[4-[2-(dimethylamino)ethyl]-1-piperidyl]thiazol-5-yl]pyrazolo[1,5-a]pyrimidine-3-carboxamide]: the values for the Ki in assay [1] and in assay [2] were 2.93 nM and 2.92 nM, respectively. In addition, the EC50 in assay [3] worked out at 10.5 nM.
